Source: publication PMC6954720, “Discovery of retinoic acid receptor agonists as proliferators of cardiac progenitor cells through a phenotypic screening approach” (Stem Cells Translational Medicine, 2019)
Entries after “also recorded” stand apart in the source; their conditions may differ. Like-named read-outs stand apart in the source and are kept apart here.

How the values were obtained:
[1] = target: T1, RARG (gamma) ligand binding domain (Homo sapiens, UniProt P13631); experiment: RAR LBD-SRC1-2 coactivator peptide recruitment assay, agonist format, RARG; assay type: biochemical
T1 sequence (P13631 185-419 limits assumed): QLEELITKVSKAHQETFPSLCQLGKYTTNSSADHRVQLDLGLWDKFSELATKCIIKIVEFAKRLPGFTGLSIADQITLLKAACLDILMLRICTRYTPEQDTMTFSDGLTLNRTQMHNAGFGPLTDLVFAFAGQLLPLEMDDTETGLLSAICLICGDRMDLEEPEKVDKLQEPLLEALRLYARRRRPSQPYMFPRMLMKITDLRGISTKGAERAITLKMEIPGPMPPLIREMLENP
Method: (§1) RAR ligand binding domain (LBD)‐SRC1‐2 coactivator peptide (NCOA1_677‐700 biotinylated) recruitment assays were established for the three RAR isotypes RARA (alpha), RARB (beta), and RARG (gamma) to determine relative potencies. […] A total of 0.4 μL of a fixed concentration range of test ligands dissolved in dimethyl sulphoxide (DMSO) was added to assay plates using an acoustic liquid dispenser. […] The raw data were transformed to % effect using the equation: compound % effect = 100 × [(X − min)/(max − min)], where X represents the effect in the presence of test compound and max and min are the effects in presence of the maximum and minimum controls, respectively.
(§2) The data were plotted to generate concentration‐response profiles and the concentration‐response curves were fit to the data using the four‐parameter logistic smart fit method in the Genedata Screener software (Genedata, Inc).

[2] = system: human iPS-derived cardiac progenitor cells (CPCs); experiment: CPC proliferation assay (nuclear count); assay type: cell-based; conditions: primary screen, relative to basic FGF 100 ng/mL
Method: (§3) The CPC proliferation assay including image and data analysis was performed as previously described.14 Cardiac progenitor marker antibodies are listed in Table S3.
A library of 10 000 compounds was screened in singlicate at three concentrations (0.1, 1.0, and 10 μM) in the CPC proliferation assay. Each plate contained neutral controls, 0.1% DMSO and maximum controls, 100 ng/mL human basic fibroblast growth factor (FGF; Invitrogen, ThermoFisher Scientific, Waltham, Massachusetts). The data were analyzed using the Genedata Screener software (Genedata, Inc, Basel, Switzerland). […] Results were calculated using the following calculation method: compound % effect = 100 × [(X − min)/(max − min)], where X represents a normalized value for the compound based on the neutral and maximum controls.
The library was screened in three‐point concentration response (CR) at 0.1, 1.0, and 10 μM measuring proliferation of human induced pluripotent stem (iPS)‐derived CPCs with nuclear count, as measured by Hoechst staining, as the primary endpoint.

[3] = target: T2, RARB (beta) ligand binding domain (Homo sapiens, UniProt P10826); experiment: RAR LBD-SRC1-2 coactivator peptide recruitment assay, agonist format, RARB; assay type: biochemical
T2 sequence (P10826 183-417 limits assumed): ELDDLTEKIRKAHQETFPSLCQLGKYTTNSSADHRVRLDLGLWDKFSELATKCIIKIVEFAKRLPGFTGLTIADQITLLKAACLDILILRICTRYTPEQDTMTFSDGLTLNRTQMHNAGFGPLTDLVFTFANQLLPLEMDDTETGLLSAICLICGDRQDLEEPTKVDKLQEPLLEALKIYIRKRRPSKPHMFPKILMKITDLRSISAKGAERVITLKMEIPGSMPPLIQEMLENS
Method: as §1, §2

[4] = system: RAR-responsive genes in CPCs; experiment: RNA seq analysis of AM580-treated CPCs; assay type: cell-based, human; conditions: 4-hour and 24-hour time points
Method: CPC was seeded in fibronectin‐coated 24‐well plates, 150 000 cells in 0.5 mL media per well. […] Cell media were removed after 4 hours or 24 hours, and the cells were lysed for RNA preparation using the MagMax Total RNA Isolation kit. Triplicate samples were prepared for each treatment and time point. RNA integrity and concentration were analyzed on a fragment analyzer with the standard sensitivity RNA kit (Agilent, Santa Clara, California). RNA quality number was 8.2 on average.
A total of 1000 ng RNA per sample was processed with the TruSeq stranded mRNA kit (Illumina, San Diego, California) following the instructions from the manufacturer. […] Samples were pooled, diluted, and denatured according to Illumina's recommendations and sequenced on a NextSeq500 (High 150 cycles kit, reading 2 × 75 cycles). On average, samples had 13M reads with 93% of reads with >Q30.
RNA‐Seq data were processed using the bcbio pipeline version 0.9.7. Hisat2 version 2.0.2‐β aligner was used to align reads to the human genome version hg38. […] Differential expression analysis was performed on feature counts using DESeq2.32 Data quality was assessed using MultiQC.33 Genes with the lowest expression levels (less than five counts in at least two samples) were removed prior to differential expression estimation since they can be considered as nonexpressed.

[5] = system: human iPS-derived cardiac progenitor cells (CPCs); experiment: CPC proliferation assay (nuclear count); assay type: cell-based
[6] = system: iPS-derived CPCs; experiment: Cardiac progenitor marker antibody staining of treated CPCs; assay type: cell-based, human; conditions: 40 nM, 3 days
Method: as §3
A key requirement of the screen was that the expanded CPCs must retain their progenitor phenotype.
Figure 2 Cardiac progenitor cells (CPCs) retain progenitor markers after retinoic acid receptor agonist treatment. […] Larger images are representative merged images of Hoechst nuclear stain in blue and immunofluorescence of the indicated progenitor marker in green. Insets show the progenitor marker staining in gray scale at 3.3‐fold higher magnification. Scale bars: 50 μm

[7] = system: human cardiac fibroblasts (CFs); experiment: CF proliferation assay (nuclear count)
Method: To ensure that these molecules were not general proliferators of all cardiac cells, they were also tested in a human CF proliferation assay31 using nuclear count as the endpoint.

[8] = target: T3, RARA (alpha) ligand binding domain (Homo sapiens, UniProt P10276); experiment: RAR LBD-SRC1-2 coactivator peptide recruitment assay, agonist format, RARA; assay type: biochemical
T3 sequence (P10276 183-417 limits assumed): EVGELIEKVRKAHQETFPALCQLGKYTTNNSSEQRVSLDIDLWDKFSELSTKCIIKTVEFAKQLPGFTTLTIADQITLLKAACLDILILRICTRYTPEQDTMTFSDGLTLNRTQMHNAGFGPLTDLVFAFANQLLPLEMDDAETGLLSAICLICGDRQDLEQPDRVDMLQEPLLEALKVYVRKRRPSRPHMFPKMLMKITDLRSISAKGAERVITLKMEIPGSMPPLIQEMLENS
Method: as §1, §2

[9] = system: HuES6 hPSC-derived cardiac progenitors; experiment: HuES6-derived cardiac progenitors replated on day 5: cell number, RT-qPCR, immunocytochemistry; assay type: cell-based, human; conditions: for effect on cell proliferation / cell numbers, in words: 1.0 μM, day-5 replated progenitors, 4 days of exposure
Method: Insulin and signaling agonists were omitted after 1 day. On days 2‐3, the nascent mesodermal cells were specified to the cardiac lineage using 0.2 μM C‐59 (R&D Tocris) supplementation. Culture medium was replaced daily.
Basal cardiac progenitor medium was composed of DMEM/F12 (ThermoFisher Scientific), insulin/transferrin/selenium supplement, 0.1% human serum albumin (Biological Industries Inc, Cromwell, Connecticut), 1× chemically defined lipids (ThermoFisher Scientific), and antibiotics. RAR agonists (1 μM) were added from the day of passaging the cells. Samples were harvested and monitored after 4 days of treatment.
Cell numbers per well were quantified following single‐cell dissociation with Accutase and using standard Neubauer counting chambers. RT‐qPCR and immunocytochemistry were performed according to standard procedures. RPL37A served as housekeeping gene for normalization.

[10] = system: human umbilical vein endothelial cells (HUVECs); set-up: method as in PMID 24424466; conditions: cited from earlier work
[11] = system: murine CFs; set-up: method as in PMID 24424466; conditions: cited from earlier work
[12] = system: human aortic SMCs; set-up: method as in PMID 24424466; conditions: cited from earlier work
[13] = Log Concentration M -6 (1.0 μM)
[14] = Log Concentration M -7 (0.1 μM)
[15] = 10-point concentration response, read-out: EC50, CPC proliferation
[16] = iPSC-derived CPC proliferation, 10-point concentration response, read-out: CPC pEC50 (converted)

**Q.** For CC1(C)CCC(C)(C)c2cc(C(=O)Nc3ccc(C(=O)O)cc3)ccc21 [AM580], which “RARγ pEC50 (% top effect): % top effect” value [1] is on record?
**A.** Its value is 99%.

**Q.** And the “% Effect-normalised cell count” value ([2]; Log Concentration M -5 (10 μM))?
**A.** The value was 49.6%.

**Q.** What about the “% Effect-normalised cell count” value [2, 13] of the same compound?
**A.** The value was 76.4%.

**Q.** What about the “% Effect-normalised cell count” value [2, 14] of the same compound?
**A.** The value was 106%.

**Q.** And the “maximal effect (% top effect)” value [3]?
**A.** The value was 104%.

**Q.** What about the “mRNA expression of RAR-responsive genes (RARB, RBP1, CRABP2, CYP26A1)” value [4] of the same compound?
**A.** The value was “significant increase”.

**Q.** What about the EC50 [5, 15] of the same compound?
**A.** Its EC50 is 5 nM.

**Q.** What about the EC50 [5, 16] of the same compound?
**A.** The EC50 was 6.31 nM.

**Q.** What about the “expression of cardiac progenitor markers Nkx2.5, Islet1, Gata4, PDGFRα after treatment” value [6] of the same compound?
**A.** Its value is “retain expression”.

**Q.** And the “CF proliferation, result in words” value [7]?
**A.** The value was “inactive”.

**Q.** What does the source list for CC1=C(/C=C/C(C)=C/C=C/C(C)=C/C(=O)O)C(C)(C)CCC1 [ATRA, all‐trans retinoic acid]?
**A.** top effect (% of maximum control) [8]: 103%; terminal cardiac differentiation, in words ([9]; 1 μM, day-5 replated cells, 4 days): did not acquire a beating phenotype; also recorded: pronounced inhibition of terminal cardiac differentiation; expression of cardiac progenitor markers vs untreated ([9]; 1 μM, day-5 replated cells, 4 days, with the exception of ISL1): enhanced the expression of cardiac progenitor markers; effect on cell proliferation / cell numbers, in words [9]: strong positive effects on cell proliferation; effect on cell proliferation / cell numbers, in words ([9]; listed as RA): increase in cell numbers; proliferation of HUVECs [10]: promoted the proliferation; proliferation of murine CFs [11]: inhibited the proliferation; % Effect-normalised cell count ([2]; Log Concentration M -5 (10 μM)): 59%; % Effect-normalised cell count [2, 13]: 14%; % Effect-normalised cell count [2, 14]: 14%; proliferation of human aortic SMCs [12]: inhibited the proliferation; EC50 ([5]; 10-point CR, variable between occasions, read-out: EC50 variation between occasions, lower end): 50 nM; EC50 ([5]; 10-point CR, variable between occasions, read-out: EC50 variation between occasions, upper end): > 10000 nM; EC50 [5, 15]: 56 nM; EC50 [5, 16]: 50.1 nM; CF proliferation, result in words [7]: inactive
